{
  "source": "patent US20090143468A1",
  "about": "“PET FOOD COMPOSITIONS AND METHODS” (priority 2004, published 2009)",
  "key": {"[1]": {"system": "osteoblast cell line MC3T3-E1", "assay": "Fatty acid compositional analysis of osteoblasts", "format": "cell-based", "method": "(§1) Experiments are conducted to determine how SDA treatment of osteoblast-like cells in culture influence the polyunsaturated fatty acid (PUFA) composition. The osteoblast cell line MC3T3-E1 is cultured in growth medium (GM) consisting of DMEM supplemented with 10% fetal bovine serum (FBS), ascorbic acid, β-glycerol-phosphate, and 1% antimicrobial solution. The cells are plated in 24-well plates at a density of 1.2×10^4 cells per ml for 3 days until confluent. Once confluent, corresponding to the initialization of the osteoblastic phenotype, the medium is either changed for SDA or […] (LNA) treatment or cultured further in GM until subjected to the various treatments. At the end of the 3 day fatty acid treatment period, cultures are exposed to agents that induce COX-2 expression. The two agents utilized are forskolin (FSK) and interleukin-1 (IL-1). These agents are selected on the basis of their respective actions on the COX-2 gene. Forskolin, an activator of adenylate cyclase, increases cyclic-AMP (cAMP) concentrations. Interleukin-1, itself a bone resorption agent binding to its receptor on the cellular membrane, launches a cascade resulting in the activation of the transcription factor nuclear-factor κ-B (NFκB). Cyclic-AMP and NFκB both activate the expression of the COX-2 gene. Cyclic-AMP activates the expression of the COX-2 gene via the cAMP-response element binding protein (CREBP), which binds to the cAMP response element (CRE) in the COX-2 promoter. The COX-2 promoter also contains an NFκB binding element.\nFatty Acid Compositional Analysis of Osteoblasts. Osteoblast cells exposed to the PUFA treatments (SDA and LNA) are subjected to a gas chromotographic analysis of the FAME from extracted lipids of washed cells."}, "other cell cultures": {"system": "other cell cultures", "assay": "Omega-3 fatty acid concentrations in other cell cultures", "format": "cell-based", "settings": "compared with linolenic acid (18:3n-3)"}, "[2]": {"system": "PGE2 production in osteoblasts", "assay": "PGE2 formation in osteoblasts (enzyme immunoassay)", "format": "cell-based", "method": "as §1, with “Interleukin-1, itself a bone resorption agent binding to its receptor on the cellular membrane, launches a cascade resulting in the activation of the transcription factor nuclear-factor κ-B (NFκB). Cyclic-AMP and NFκB both activate the expression of the COX-2 gene. Cyclic-AMP activates the expression of the COX-2 gene via the cAMP-response element binding protein (CREBP), which binds to the cAMP response element (CRE) in the COX-2 promoter. The COX-2 promoter also contains an NFκB binding element.” left out\nWestern Blot. […] Optical density is determined using Optimus image analyzing software (version 6.1). […]\nPGE2 Formation. In the experiments, already detailed in the section on Western blotting, PGE2 levels in the medium of induced and non-induced cells are determined using an enzyme immunoassay kit (Cayman Chemical, Ann Arbor, Mich.)."}, "[3]": {"system": "Alkaline phosphatase (ALP) activity in osteoblast cells MC3T3-E1", "assay": "Alkaline phosphatase (ALP) activity, method of Lowry", "format": "cell-based", "settings": "all time points evaluated; relative to linolenic acid", "method": "as §1, with “Cyclic-AMP activates the expression of the COX-2 gene via the cAMP-response element binding protein (CREBP), which binds to the cAMP response element (CRE) in the COX-2 promoter. The COX-2 promoter also contains an NFκB binding element.” left out\nEnzyme activity: Alkaline phosphatase (ALP) activity is determined by the method of Lowry."}, "[4]": {"assay": "Beagle feeding study, diets supplemented with SDA or linolenic acid", "format": "in vivo, beagles", "settings": "dogs, low essential fatty acid diet 90 days", "source_text": "Experiments are also designed to evaluate the effect of SDA on the pet, such as a dog or cat. As an example, beagles are provided with a low essential fatty acid diet for a period of 90 days. Diets supplemented with SDA or linolenic acid are provided for the subsequent 30 days."}, "[5]": {"settings": "then supplemented diet 30 days, compared to linolenic acid diet"}},
  "data": [
    {"smiles": "CC/C=C\\C/C=C\\C/C=C\\C/C=C\\CCCCC(=O)O", "note": "[SDA, 6Z, 9Z, 12Z, 15Z-octadecatetraenoic acid]", "values": [
      {"measurement": "concentrations of total omega-3 fatty acid in osteoblasts", "setting": "[1]; SDA at increasing treatment levels", "value": "increased concentrations"},
      {"measurement": "22:5n-3 in osteoblasts", "setting": "[1]; SDA treatment of osteoblasts", "value": "particularly elevates"},
      {"measurement": "EPA in osteoblasts", "setting": "[1]; SDA treatment of osteoblasts", "value": "particularly elevates"},
      {"measurement": "altering the concentrations of omega-3 fatty acid", "setting": "other cell cultures", "value": "more effective"},
      {"measurement": "PGE2 production in osteoblasts", "setting": "[2]", "value": "attenuate PGE2 production"},
      {"measurement": "activity of alkaline phosphatase", "setting": "[3]", "value": "highest activity"},
      {"measurement": "arachidonic acid in plasma and liver", "setting": "[4]; then SDA supplemented diet 30 days", "value": "trend of decreased arachidonic acid"},
      {"measurement": "concentrations of 22:5n-3 in red blood cell membranes, plasma, and liver tissue", "setting": "[4]; [5]", "value": "elevated concentrations"},
      {"measurement": "concentrations of EPA in red blood cell membranes, plasma, and liver tissue", "setting": "[4]; [5]", "value": "elevated concentrations"}
    ]}
  ]
}
